Twelve compounds from patent US20250034134A1, “15-PGDH INHIBITOR AND USE THEREOF” (Wuhan Humanwell Innovative Drug Research and Development …, priority 2021, published 2025) can be followed below.

One assay addresses 15-PGDH (Homo sapiens (Human), UniProt P15428). As to the kind of experiment: Inhibition test of compounds on 15-PGDH enzyme. In kind it is biochemical. Here is the method: 15-PGDH (R&D Systems, Cat. No.: 5660-DH-010) was prepared to twice the final concentration, i.e., 30 nM, using Assay Buffer (50 mM Tris-HCl, pH 7.5, 0.01vol % Tween 20). The obtained mixture was then added to a 384-well white plate (Cisbio Bioassays, Cat. No. 66PL384025) at 8 μL/well. Negative control wells (with Assay Buffer only and without enzyme) were set. The compound was then prepared to 4 times the final concentration using Assay Buffer, i.e., diluted 3-fold to 10 concentrations starting from 4000 nM. The obtained mixture was added to the above white plate at 4 μL/well, mixed well, centrifuged at 1000 rpm for 1 minute, and incubated at 25° C. for 10 minutes. Both positive control wells (with 15-PGDH only) and negative control wells (without 15-PGDH) were set. A mixture of NAD^+(Select, Cat. No. S2518) and PGE2 (R&D Systems, Cat. No.: 2296/10) was then prepared using Assay Buffer. NAD^+ and PGE2 were prepared to four times their final concentrations, i.e., 2 mM and 0.12 mM, respectively, using Assay Buffer. The obtained mixture was then added to the above white plate at 4 μL/well, mixed well, centrifuged at 1000 rpm for 1 minute, and incubated at 25° C. for 30 minutes for the reaction. The fluorescence was detected at an excitation wavelength of 340 nm and an emission wavelength of 485 nm using instrument TECAN SPARK 20M. The IC50 value was calculated using four-parameter fitting with GraphPad Prism 8.0.

For a further assay, the system named is A549 cells. As to the kind of experiment: Effect of compounds on PGE2 levels in A549 cell supernatant. The assay is classed as cell-based. As to conditions: 20 nM compound, about 12 hours, after IL-10 stimulation; ELISA. Here is the method:
A549 cells (Procell, Wuhan) were cultured in F12K+10% FBS. The cells with good status in log phase were selected for the experiment, digested, counted, and inoculated into a 24-well plate at 8000 cells per well. The cells were cultured in a 37° C., 5% CO2 incubator overnight. After adherence, the cells were transferred to a culture medium containing 0.5% FBS and cultured for about 10 hours. IL-10 was added to each well (final concentration of 20 ng/mL, 1 mL per well), and a control group (without IL-10) was set up. After stimulation with IL-10 for about 24 hours, the cell culture medium of each well was aspirated and discarded, and the wells were gently washed with fresh culture medium containing 0.5% FBS. 400 μL of culture medium containing the compound of different concentrations (20 nM and 2500 nM) was added to each well and cultured for about 12 hours. The supernatant was collected and PGE2 was detected using ELISA kit (R&D Systems, Cat. No.: KGE004B).
In general terms: In an ELISA, binding on a coated surface is turned into a signal by an enzyme label.

By IC50 is commonly meant the midpoint of a concentration-inhibition curve.

Chain of 15-PGDH (P15428 whole entry): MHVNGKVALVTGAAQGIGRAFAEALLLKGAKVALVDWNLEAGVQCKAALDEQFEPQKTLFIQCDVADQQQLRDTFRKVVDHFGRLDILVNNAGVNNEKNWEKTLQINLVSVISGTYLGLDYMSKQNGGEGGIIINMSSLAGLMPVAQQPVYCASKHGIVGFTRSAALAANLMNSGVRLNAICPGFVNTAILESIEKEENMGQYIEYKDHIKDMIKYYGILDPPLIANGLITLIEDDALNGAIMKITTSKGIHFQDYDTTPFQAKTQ

Consider `Cn1nc2cc(N3CC4CC4c4cc(C(=O)N5CCC[C@@H](CF)C5)cnc43)ccn2c1=O` (stereo partly drawn) [Compound I-30, 7-(6-((R)-3-(fluoromethyl)piperidine-1-carbonyl)-1,1a,2,7b-tetrahydro-3H-cyclopropa[c][1,8]naphthyridin-3-yl)-2-methyl-[1,2,4]triazolo[4,3-a]pyridin-3(2H)-one], for which the IC50 against 15-PGDH is 6 nM. Also, the “Fold increase of PGE2 in A549 cell supernatant” value (“Fold increase of PGE2” below) in the assay on A549 cells worked out at 2.72. The matching figures for `Cn1nc2cc(N3CC4CC4c4cc(C(=O)N5CCCC(F)(F)C5)cnc43)ccn2c1=O` (stereo not shown) [Compound I-24, 7-(6-(3,3-difluoropiperidine-1-carbonyl)-1,1a,2,7b-tetrahydro-3H-cyclopropa[c][1,8]naphthyridin-3-yl)-2-methyl-[1,2,4]triazolo[4,3-a]pyridin-3(2H)-one]: 4.23 nM and 2.95.

As to `CN1Cc2cc(N3CC4CC4c4cc(C(=O)N5CCC(F)(F)CC5)cnc43)ncc2C1=O` (stereo not shown) [Compound I-18, 6-(6-(4,4-difluoropiperidine-1-carbonyl)-1,1a,2,7b-tetrahydro-3H-cyclopropa[c][1,8]naphthyridin-3-yl)-2-methyl-1,2-dihydro-3H-pyrrolo[3,4-c]pyridin-3-one], the 50% inhibitory concentration (IC50) on 15-PGDH is 20 nM. This lies in the double-digit nanomolar range. For the compound `Cn1ncc2cc(N3CC4CC4c4cc(C(=O)N5CCC(F)(F)CC5)ccc43)cnc2c1=O` (stereo not shown) [Compound I-14, 3-(6-(4,4-difluoropiperidine-1-carbonyl)-1,1a,2,7b-tetrahydro-3H-cyclopropa[c]quinolin-3-yl)-7-methylpyrido[2,3-d]pyridazin-8(7H)-one], 8.6 nM corresponded to half-maximal inhibition on 15-PGDH (IC50). Besides, the “Fold increase of PGE2” value in the assay on A549 cells is 2.3. The compound `CN1Cc2cc(N3CC4CC4c4cc(C(=O)N5CCC(F)(F)CC5)cnc43)ccc2C1=O` (stereo not shown) [Compound I-1, 5-(6-(4,4-difluoropiperidine-1-carbonyl)-1,1a,2,7b-tetrahydro-3H-cyclopropa[c][1,8]naphthyridin-3-yl)-2-methylisoindolin-1-one] gave an IC50 at 15-PGDH of 4.3 nM. Further, the “Fold increase of PGE2” value in the assay with A549 cells was 4.3. The compound `Cn1ccc2cc(N3CC4CC4c4cc(C(=O)N5CCC(F)(F)CC5)cnc43)ccc2c1=O` (single isomer, unassigned) [Compound I-12A] came in with an IC50 against 15-PGDH of 1.52 nM. Same read-out and setting: the same measure for `Cn1ccc2cc(N3CC4CC4c4cc(C(=O)N5CCC(F)(F)CC5)cnc43)ccc2c1=O` (single isomer, unassigned) [Compound I-12B]: 7.42 nM; for `Cn1nc2cc(N3CC4CC4c4cc(C(=O)N5CCOCC5)cnc43)ccn2c1=O` (stereo not shown) [Compound I-22, 2-methyl-7-(6-(morpholine-4-carbonyl)-1,1a,2,7b-tetrahydro-3H-cyclopropa[c][1,8]naphthyridin-3-yl)-[1,2,4]triazolo[4,3-a]pyridin-3(2H)-one]: 10.2 nM; for `[2H]C([2H])([2H])n1nc2cc(N3CC4CC4c4cc(C(=O)N5CCC(F)(F)CC5)cnc43)ccn2c1=O` (stereo not shown) [Compound I-25, 7-(6-(4,4-difluoropiperidine-1-carbonyl)-1,1a,2,7b-tetrahydro-3H-cyclopropa[c][1,8]naphthyridin-3-yl)-2-(methyl-d3)-[1,2,4]triazolo[4,3-a]pyridin-3(2H)-one]: 2.59 nM. Compound `[2H]C([2H])([2H])n1nc2cc(N3CC4CC4c4cc(C(=O)N5CCC(F)(F)CC5)cnc43)ccn2c1=O` (single isomer, unassigned) [Compound I-25B] came in with an IC50 against 15-PGDH of 3.78 nM. At 15-PGDH, `CNC(=O)c1ccc(N2CC3CC3c3cc(C(=O)N4CCC(F)(F)CC4)cnc32)cc1F` (stereo not shown) [Compound I-9, 4-(6-(4,4-difluoropiperidine-1-carbonyl)-1,1a,2,7b-tetrahydro-3H-cyclopropa[c][1,8]naphthyridin-3-yl)-2-fluoro-N-methylbenzamide] had an IC50 of 9.51 nM. `[2H]C([2H])([2H])n1nc2cc(N3CC4CC4c4cc(C(=O)N5CCC(F)(F)CC5)cnc43)ccn2c1=O` (single isomer, unassigned) [Compound I-25A]: at 15-PGDH, half-maximal inhibition (IC50) was put at 15.8 nM.
